Test results reported in ChEMBL document CHEMBL1201861, “Genomics of Drug Sensitity in Cancer screening data, Wellcome Trust Sanger Institute”.

Experiments:
Assay in all cases: cells
Details in all cases: Homo sapiens
ES7 = assay type: functional, cell-based;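 further: growth inhibition of cultured human ES7 cells, read out as cell viability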
Description: SANGER: Inhibition of human ES7 cell growth in a cell viability assay.

NB69 = assay type: functional, cell-based;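 further: growth inhibition of NB69 cells, determined by a cell viability assay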
Description: SANGER: Inhibition of human NB69 cell growth in a cell viability assay.

A498 = assay type: functional, cell-based;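 further: growth inhibition of human A498 cells, read out with a cell viability assay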
Description: SANGER: Inhibition of human A498 cell growth in a cell viability assay.

LC-2-ad = assay type: functional, cell-based;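 further: growth inhibition of human LC-2-ad cells, read out with a cell viability assay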
Description: SANGER: Inhibition of human LC-2-ad cell growth in a cell viability assay.

COLO-668 = assay type: functional, cell-based
Description: SANGER: Inhibition of human COLO-668 cell growth in a cell viability assay.

LS-411N = assay type: functional, cell-based
HCE-4 = assay type: functional, cell-based;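 further: cell viability assay measuring inhibition of growth in the human HCE-4 cell line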
Description: SANGER: Inhibition of human HCE-4 cell growth in a cell viability assay.

HCE-T = assay type: functional, cell-based;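 further: cell viability assay read-out, reporting inhibition of HCE-T cell growth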
Description: SANGER: Inhibition of human HCE-T cell growth in a cell viability assay.

MFH-ino = assay type: functional, cell-based;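 further: growth inhibition of human MFH-ino cells, read out by a cell viability assay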
Description: SANGER: Inhibition of human MFH-ino cell growth in a cell viability assay.

COLO-829 = assay type: functional, cell-based
Description: SANGER: Inhibition of human COLO-829 cell growth in a cell viability assay.

NCI-H2126 = assay type: functional, cell-based;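 further: growth inhibition of the cancer cell line, determined with a cell viability readout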
Description: SANGER: Inhibition of human NCI-H2126 cell growth in a cell viability assay.

LB2241-RCC = assay type: functional, cell-based;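 further: cell viability assay measuring how strongly the cultured human renal carcinoma line is prevented from growing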
Description: SANGER: Inhibition of human LB2241-RCC cell growth in a cell viability assay.

U-87 MG = assay type: functional, cell-based, U-87MG ATCC;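 further: growth inhibition of the cells measured with a viability assay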
Description: SANGER: Inhibition of human U-87-MG cell growth in a cell viability assay.

NMC-G1 = assay type: functional, cell-based;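 further: growth inhibition of the NMC-G1 cell line, measured with a cell viability read-out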
Description: SANGER: Inhibition of human NMC-G1 cell growth in a cell viability assay.

HT-144 = assay type: functional, cell-based
Description: SANGER: Inhibition of human HT-144 cell growth in a cell viability assay.

LB771-HNC = assay type: functional, cell-based;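 further: growth inhibition of LB771-HNC human cells, read out with a cell viability assay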
Description: SANGER: Inhibition of human LB771-HNC cell growth in a cell viability assay.

TE-1 = assay type: functional, cell-based
Description: SANGER: Inhibition of human TE-1 cell growth in a cell viability assay.

NCI-H23 = assay type: functional, cell-based;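 further: cell viability assay measuring growth inhibition of NCI-H23 cells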
Description: SANGER: Inhibition of human NCI-H23 cell growth in a cell viability assay.

TE-8 = assay type: functional, cell-based;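 further: growth inhibition of TE-8 cells, measured with a cell viability readout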
Description: SANGER: Inhibition of human TE-8 cell growth in a cell viability assay.

A4-Fuk = assay type: functional, cell-based;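 further: growth inhibition of A4-Fuk cells, read out by a cell viability assay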
Description: SANGER: Inhibition of human A4-Fuk cell growth in a cell viability assay.

MPP-89 = assay type: functional, cell-based;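 further: growth inhibition of human MPP-89 cells, read out with a cell viability assay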
Description: SANGER: Inhibition of human MPP-89 cell growth in a cell viability assay.

LS-123 = assay type: functional, cell-based
Description: SANGER: Inhibition of human LS-123 cell growth in a cell viability assay.

KM12 = assay type: functional, cell-based;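 further: KM12 cell growth inhibition, read out with a cell viability assay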
Description: SANGER: Inhibition of human KM12 cell growth in a cell viability assay.

D-502MG = assay type: functional, cell-based
Description: SANGER: Inhibition of human D-502MG cell growth in a cell viability assay.

CW-2 = assay type: functional, cell-based;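 further: growth inhibition of CW-2 cells, read out by a cell viability assay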
Description: SANGER: Inhibition of human CW-2 cell growth in a cell viability assay.

D283 Med = assay type: functional, cell-based
Description: SANGER: Inhibition of human D-283MED cell growth in a cell viability assay.

CTB-1 = assay type: functional, cell-based
Description: SANGER: Inhibition of human CTB-1 cell growth in a cell viability assay.

NCI-H226 = assay type: functional, cell-based;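 further: cell viability read-out used to gauge growth inhibition of the cells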
Description: SANGER: Inhibition of human NCI-H226 cell growth in a cell viability assay.

PSN1 = assay type: functional, cell-based;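 further: suppression of growth of human PSN1 cells, read out by a cell viability assay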
Description: SANGER: Inhibition of human PSN1 cell growth in a cell viability assay.

MHH-NB-11 = assay type: functional, cell-based;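 further: growth inhibition of human MHH-NB-11 cells, read out by a cell viability assay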
Description: SANGER: Inhibition of human MHH-NB-11 cell growth in a cell viability assay.

DOHH-2 = assay type: functional, cell-based;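 further: growth inhibition of human DOHH-2 cells, read out with a cell viability assay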
Description: SANGER: Inhibition of human DOHH-2 cell growth in a cell viability assay.

TE-11 = assay type: functional, cell-based;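 further: growth inhibition of human TE-11 cells, read out by a cell viability assay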
Description: SANGER: Inhibition of human TE-11 cell growth in a cell viability assay.

NH-12 = assay type: functional, cell-based;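 further: growth inhibition of NH-12 cells, read out with a cell viability assay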
Description: SANGER: Inhibition of human NH-12 cell growth in a cell viability assay.

A3-KAW = assay type: functional, cell-based;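 further: growth inhibition of human A3-KAW cells, read out with a cell viability assay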
Description: SANGER: Inhibition of human A3-KAW cell growth in a cell viability assay.

ALL-PO = assay type: functional, cell-based;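 further: growth inhibition of ALL-PO cells, read out by a cell viability assay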
Description: SANGER: Inhibition of human ALL-PO cell growth in a cell viability assay.

IA-LM = assay type: functional, cell-based;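 further: cell viability assay measuring growth inhibition of human IA-LM cells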
Description: SANGER: Inhibition of human IA-LM cell growth in a cell viability assay.

BB30-HNC = assay type: functional, cell-based;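 further: growth inhibition of the cultured cell line, read out by a cell viability assay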
Description: SANGER: Inhibition of human BB30-HNC cell growth in a cell viability assay.

EW-16 = assay type: functional, cell-based;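 further: growth inhibition of human EW-16 cells, read out as cell viability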
Description: SANGER: Inhibition of human EW-16 cell growth in a cell viability assay.

SK-LMS-1 = assay type: functional, cell-based;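 further: growth inhibition of human SK-LMS-1 cells, read out with a cell viability assay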
Description: SANGER: Inhibition of human SK-LMS-1 cell growth in a cell viability assay.

CAS-1 = assay type: functional, cell-based;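 further: growth inhibition of CAS-1 cells, measured with a cell viability assay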
Description: SANGER: Inhibition of human CAS-1 cell growth in a cell viability assay.

NB13 = assay type: functional, cell-based;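 further: cell viability readout measuring growth inhibition of human NB13 cells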
Description: SANGER: Inhibition of human NB13 cell growth in a cell viability assay.

8-MG-BA = assay type: functional, cell-based;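 further: growth inhibition of 8-MG-BA cells, read out with a cell viability assay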
Description: SANGER: Inhibition of human 8-MG-BA cell growth in a cell viability assay.

K5 = assay type: functional, cell-based
Description: SANGER: Inhibition of human K5 cell growth in a cell viability assay.

SJSA-1 = assay type: functional, cell-based;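 further: growth inhibition of human SJSA-1 cells, read out through a cell viability measurement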
Description: SANGER: Inhibition of human SJSA-1 cell growth in a cell viability assay.

KGN = assay type: functional, cell-based;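 further: growth inhibition of KGN cells, read out with a cell viability assay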
Description: SANGER: Inhibition of human KGN cell growth in a cell viability assay.

ACN = assay type: functional, cell-based;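 further: growth inhibition of the human ACN cell line, read out via cell viability testing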
Description: SANGER: Inhibition of human ACN cell growth in a cell viability assay.

P30-OHK = assay type: functional, cell-based;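 further: growth inhibition of the P30-OHK cell line, read out with a cell viability assay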
Description: SANGER: Inhibition of human P30-OHK cell growth in a cell viability assay.

NCI-H1581 = assay type: functional, cell-based;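 further: cell growth inhibition read out by a viability assay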
Description: SANGER: Inhibition of human NCI-H1581 cell growth in a cell viability assay.

EM-2 = assay type: functional, cell-based;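 further: growth inhibition of EM-2 cells, read out with a cell viability assay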
Description: SANGER: Inhibition of human EM-2 cell growth in a cell viability assay.

EW-1 = assay type: functional, cell-based
Description: SANGER: Inhibition of human EW-1 cell growth in a cell viability assay.

HOP-62 = assay type: functional, cell-based;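 further: cell growth inhibition determined with a viability assay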
Description: SANGER: Inhibition of human HOP-62 cell growth in a cell viability assay.

SW684 = assay type: functional, cell-based;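 further: growth inhibition of human SW684 cells, measured by a cell viability assay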
Description: SANGER: Inhibition of human SW684 cell growth in a cell viability assay.

LS-1034 = assay type: functional, cell-based
Description: SANGER: Inhibition of human LS-1034 cell growth in a cell viability assay.

SF-539 = assay type: functional, cell-based;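 further: Read-out is a cell viability assay, with IC50 reflecting inhibition of cell growth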
Description: SANGER: Inhibition of human SF539 cell growth in a cell viability assay.

SW872 = assay type: functional, cell-based;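 further: growth inhibition of SW872 cells, read out by a viability assay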
Description: SANGER: Inhibition of human SW872 cell growth in a cell viability assay.

OS-RC-2 = assay type: functional, cell-based;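 further: growth inhibition of human OS-RC-2 cells, measured by a cell viability assay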
Description: SANGER: Inhibition of human OS-RC-2 cell growth in a cell viability assay.

BB65-RCC = assay type: functional, cell-based;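 further: growth inhibition of the cell line, measured with a cell viability assay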
Description: SANGER: Inhibition of human BB65-RCC cell growth in a cell viability assay.

QIMR-WIL = assay type: functional, cell-based;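 further: growth inhibition of QIMR-WIL cells, read out with a cell viability assay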
Description: SANGER: Inhibition of human QIMR-WIL cell growth in a cell viability assay.

COR-L88 = assay type: functional, cell-based;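 further: growth inhibition of COR-L88 cells, read out with a cell viability assay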
Description: SANGER: Inhibition of human COR-L88 cell growth in a cell viability assay.

NCI-H209 = assay type: functional, cell-based;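 further: growth inhibition of human NCI-H209 cells, measured by a cell viability assay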
Description: SANGER: Inhibition of human NCI-H209 cell growth in a cell viability assay.

EW-3 = assay type: functional, cell-based
Description: SANGER: Inhibition of human EW-3 cell growth in a cell viability assay.

LU-139 = assay type: functional, cell-based
Description: SANGER: Inhibition of human LU-139 cell growth in a cell viability assay.

SNU-5 = assay type: functional, cell-based
Description: SANGER: Inhibition of human NCI-SNU-5 cell growth in a cell viability assay.

BV-173 = assay type: functional, cell-based
Description: SANGER: Inhibition of human BV-173 cell growth in a cell viability assay.

ML-2 = assay type: functional, cell-based
Description: SANGER: Inhibition of human ML-2 cell growth in a cell viability assay.

EW-18 = assay type: functional, cell-based
Description: SANGER: Inhibition of human EW-18 cell growth in a cell viability assay.

O=c1cc(N2CCOCC2)oc2c(-c3cccc4c3sc3ccccc34)cccc12
IC50 (ES7): > 2 µM | IC50 (NB69): > 2000 nM | IC50 (A498): > 2000 nM | IC50 (LC-2-ad): > 2 µM | IC50 (COLO-668): > 2 µM | IC50 (LS-411N): > 2000 nM | IC50 (HCE-4): > 2000 nM | IC50 (HCE-T): > 2 µM | IC50 (MFH-ino): > 2 µM | IC50 (COLO-829): > 2000 nM | IC50 (NCI-H2126): > 2 µM | IC50 (LB2241-RCC): > 2 µM | IC50 (U-87 MG): > 2 µM | IC50 (NMC-G1): > 2 µM | IC50 (HT-144): > 2000 nM | IC50 (LB771-HNC): > 2 µM | IC50 (TE-1): > 2 µM | IC50 (NCI-H23): > 2 µM | IC50 (TE-8): > 2 µM | IC50 (A4-Fuk): > 2000 nM | IC50 (MPP-89): > 2 µM | IC50 (LS-123): > 2 µM | IC50 (KM12): > 2000 nM | IC50 (D-502MG): > 2000 nM | IC50 (CW-2): > 2 µM | IC50 (D283 Med): > 2 µM | IC50 (CTB-1): 1120 nM | IC50 (NCI-H226): > 2 µM | IC50 (PSN1): > 2000 nM | IC50 (MHH-NB-11): > 2 µM | IC50 (DOHH-2): > 2000 nM | IC50 (TE-11): > 2000 nM | IC50 (NH-12): > 2 µM | IC50 (A3-KAW): > 2 µM | IC50 (ALL-PO): > 2000 nM | IC50 (IA-LM): > 2000 nM | IC50 (BB30-HNC): > 2000 nM | IC50 (EW-16): > 2 µM | IC50 (SK-LMS-1): > 2 µM | IC50 (CAS-1): > 2 µM | IC50 (NB13): > 2 µM | IC50 (8-MG-BA): > 2 µM | IC50 (K5): > 2000 nM | IC50 (SJSA-1): > 2000 nM | IC50 (KGN): > 2 µM | IC50 (ACN): > 2000 nM | IC50 (P30-OHK): > 2 µM | IC50 (NCI-H1581): > 2 µM | IC50 (EM-2): > 2000 nM | IC50 (EW-1): > 2 µM | IC50 (HOP-62): > 2 µM | IC50 (SW684): > 2 µM | IC50 (LS-1034): > 2 µM | IC50 (SF-539): > 2 µM | IC50 (SW872): > 2000 nM | IC50 (OS-RC-2): > 2 µM | IC50 (BB65-RCC): > 2 µM | IC50 (QIMR-WIL): > 2 µM

Cc1ccc(NC(=O)c2cccc(C(C)(C)C#N)c2)cc1Nc1ccc2ncn(C)c(=O)c2c1
IC50 (ES7): > 4 µM | IC50 (NB69): 191 nM | IC50 (COR-L88): > 4 µM | IC50 (NCI-H209): > 4 µM | IC50 (LC-2-ad): > 4 µM | IC50 (COLO-668): > 4 µM | IC50 (LS-411N): 91.6 nM | IC50 (HCE-T): > 4 µM | IC50 (MFH-ino): > 4 µM | IC50 (COLO-829): 25.6 nM | IC50 (NCI-H2126): > 4 µM | IC50 (LB2241-RCC): > 4 µM | IC50 (U-87 MG): > 4 µM | IC50 (NMC-G1): > 4 µM | IC50 (HT-144): 6.61 nM | IC50 (LB771-HNC): > 4 µM | IC50 (TE-1): > 4 µM | IC50 (EW-3): > 4 µM | IC50 (NCI-H23): > 4 µM | IC50 (TE-8): > 4 µM | IC50 (A4-Fuk): 484 nM | IC50 (MPP-89): > 4 µM | IC50 (LS-123): > 4 µM | IC50 (KM12): 2080 nM | IC50 (D-502MG): 2260 nM | IC50 (LU-139): > 4 µM | IC50 (CW-2): > 4 µM | IC50 (D283 Med): > 4 µM | IC50 (CTB-1): > 4000 nM | IC50 (NCI-H226): > 4 µM | IC50 (SNU-5): 2810 nM | IC50 (PSN1): 27.4 nM | IC50 (MHH-NB-11): > 4 µM | IC50 (DOHH-2): 1990 nM | IC50 (NH-12): > 4 µM | IC50 (A3-KAW): > 4 µM | IC50 (ALL-PO): 1350 nM | IC50 (BB30-HNC): 1960 nM | IC50 (EW-16): > 4 µM | IC50 (SK-LMS-1): > 4 µM | IC50 (CAS-1): > 4 µM | IC50 (BV-173): 692 nM | IC50 (NB13): > 4 µM | IC50 (8-MG-BA): > 4 µM | IC50 (K5): 134 nM | IC50 (SJSA-1): 1430 nM | IC50 (KGN): > 4 µM | IC50 (ACN): < 15.6 nM | IC50 (P30-OHK): > 4 µM | IC50 (NCI-H1581): > 4 µM | IC50 (EM-2): 196 nM | IC50 (EW-1): > 4 µM | IC50 (ML-2): 369 nM | IC50 (HOP-62): > 4 µM | IC50 (EW-18): > 4 µM | IC50 (SW684): > 4 µM | IC50 (LS-1034): > 4 µM | IC50 (SF-539): > 4 µM | IC50 (SW872): 96.5 nM | IC50 (OS-RC-2): > 4 µM | IC50 (BB65-RCC): > 4 µM | IC50 (QIMR-WIL): 3.23 µM
